The source of these data is patent US20090099169A1, “Benzofuran Compounds As EP1 Receptor Antagonists” (GLAXO GROUP LIMITED, priority 2006, published 2009).

For the assay, the target named is T1, human EP3 receptor (Homo sapiens, UniProt P43115).
T1 construct: expressed in transfected cells; host or cells: CHO-K1
T1 sequence (P43115 1-390): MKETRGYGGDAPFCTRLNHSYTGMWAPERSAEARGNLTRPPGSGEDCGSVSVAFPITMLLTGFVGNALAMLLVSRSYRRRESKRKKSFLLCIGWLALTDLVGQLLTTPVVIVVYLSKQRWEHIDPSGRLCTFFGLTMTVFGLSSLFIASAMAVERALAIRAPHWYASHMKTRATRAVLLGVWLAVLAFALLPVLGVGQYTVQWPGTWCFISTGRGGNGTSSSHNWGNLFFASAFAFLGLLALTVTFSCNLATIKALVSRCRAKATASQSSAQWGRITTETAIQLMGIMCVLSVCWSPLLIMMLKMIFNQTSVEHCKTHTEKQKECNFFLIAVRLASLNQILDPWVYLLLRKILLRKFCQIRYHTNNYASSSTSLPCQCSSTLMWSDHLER
In words: human EP3 calcium mobilisation assay. The note with it: CHO-K1 cells, antagonism of PGE2; averages of a number of experiments; read-out: functional pKi value (human EP3 calcium mobilisation assay) (converted). The assay is classed as cell-based. The gist of the method:
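CHO-K1 cells stably transfected with human EP1 or EP3, loaded with Fluo-4 after 24 h culture, treated with compound, then challenged with PGE2. Calcium-driven fluorescence read on FLIPR; pIC50 is half-maximal inhibition of PGE2-induced calcium mobilisation, from curve fitting.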
For orientation: Calcium flux is commonly read through the fluorescence of an indicator in the cells.

On to `Cc1cc(C(=O)O)nn1Cc1cc(Cl)cc2cc(C(C)C)oc12` [Example 3, 1-{[5-Chloro-2-(1-methylethyl)-1-benzofuran-7-yl]methyl}-5-methyl-1H-pyrazole-3-carboxylic Acid], for which the Ki is 0.501 to 10 µM. The same measure for `CC(C)c1cc2cc(Cl)cc(Cc3ccc(C(=O)O)o3)c2o1` [Example 1, 5-{[5-Chloro-2-(1-methylethyl)-1-benzofuran-7-yl]methyl}-2-furancarboxylic Acid]: 0.501 to 10 µM.
